Reference: patent publication US5637501A, “Apparatus for automatically testing the antibiotic sensitivity of a paraffinophilic microorganism” (Infectech, Inc., priority 1995, dated 1997)

Test system: MAI
Test: antibiotic sensitivity (MIC) of MAI strains, paraffin slide culture and microliter assays
Format: cell-based, Mycobacterium avium-intracellulare
Set-up: key: NG: No Growth
Description: The present invention has met the above-described need. In one embodiment, it provides a method of automatically testing the sensitivity of a paraffinophilic microorganism to different antimicrobial agents, such as antibiotics, and concentrations thereof, by providing a plurality of receptacles, each containing an amount of liquid medium, an antimicrobial agent to be tested and the microorganism to be tested. In each of the receptacles is placed a slide containing a paraffin source. The receptacles are then incubated, after which a light scatter sensing means automatically and sequentially monitors the extent of microorganism growth on the slides. The extent of colony growth is employed to determine which antimicrobial agent in which concentration is effective to resist growth of the microorganism. A preferred light scatter sensing means is a nephelometer.
Referring specifically to FIG. 1, there is shown a preferred embodiment of the present invention usable in a method of automatically testing the sensitivity of a pure culture of a microorganism to different antimicrobial agents and concentrations thereof. In this embodiment, a microorganism, which may have been previously speciated as by the technique taught in U.S. Pat. No. 5,153, 119, has been introduced into a plurality of receptacles, each containing an amount of liquid medium and antimicrobial agent to be tested. A paraffin slide is introduced into each of the receptacles which are subsequently incubated. The receptacles 2-22 (even numbers only) are fixedly secured to an elongated, substantially rigid movable carrier member 26, such that the receptacles 2-22 will be translated therewith in the direction shown by the arrow A. The carrier member 26 may be made of any suitable material, such as aluminum, steel, stainless steel, or resinous plastic, for example. The receptacles 2-22, respectively, contain slides 32-52 (even numbers only). The slides 32-52 are fixedly secured, respectively, within receptacles 2-22 which may test tubes. The slides 32-52 are generally oriented so as to have their elongated direction aligned with the direction of travel of the carrier 26. As the carrier moves in the direction of arrow A, the slides 2-22 will sequentially be positioned in operative relationship to the light scatter sensing means which consists of light source 60, which directs a light beam toward light detector 62. In the preferred embodiment, a beam of visible light from light source 60 will impinge upon slide 32, with the growth of the microorganism thereon producing a corresponding scatter of light which is received by the light receiving sensor 62 and converts the received light into an appropriate output electrical signal which will be delivered to computer means 64. The computer means 64, in turn, provides output to output means 66, which may conveniently be a display, such as a cathode ray tube or a hard copy printer, for example. The degree of light scatter will be related to the extent of microorganism growth with light scatter increasing as growth on the slide increases.
The computer means 64 may be a general purpose digital microprocessor. It may be programmed in a manner readily known to those skilled in the art to sequentially compare the light scatter value of each slide 32-52 with that of a control slide and to provide an output to output means 66, such as a visual screen display or hard copy, with or without prior enhancement, which indicates the difference between the control slide and the specific slides containing the same pure culture of a paraffinophilic microorganism, but exposed to different concentrations of different or the same antimicrobial agents, such an antibiotics. In this manner, there is provided the minimal concentration level of a specific antimicrobial agent that must be used to control growth of the microorganism. Also, the minimum bactericidal concentration may be determined. […]

[1] = Table 2, Exp. Series I, strain 7

NCC[C@H](O)C(=O)N[C@@H]1C[C@H](N)[C@@H](O[C@H]2O[C@H](CN)[C@@H](O)[C@H](O)[C@H]2O)[C@H](O)[C@H]1O[C@H]1O[C@H](CO)[C@@H](O)[C@H](N)[C@H]1O [amikacin] was tested, and the “Days to Confluency” value (Table 2, Exp. Series I, strain 2) was 7 days, the “Days to Confluency” value (Table 2, Exp. Series I, strain 3) was 8 days and the “Days to Confluency” value (Table 2, Exp. Series I, strain 4) was 8 days. The “Days to Confluency” value (Table 2, Exp. Series I, strain 5) was 7 days, the “Days to Confluency” value (Table 2, Exp. Series I, strain 6) was 7 days and the “Days to Confluency” value [1] was “NG”. The MIC [1] was “NG”, the “Days to Confluency” value (Table 2, Exp. Series I, strain 8) was 7 days and the “Days to Confluency” value (Table 2, Exp. Series I, strain 9) was 8 days. The “Days to Confluency” value (Table 2, Exp. Series I, strain 10) was 6 days, the “Days to Confluency” value (Table 2, Exp. Series I, strain 11) was 5 days and the “Days to Confluency” value (Table 2, Exp. Series I, strain 12) was 5 days. The “Days to Confluency” value (Table 2, Exp. Series I, strain 13) was 6 days, the “Days to Confluency” value (Table 2, Exp. Series I, strain 14) was 5 days and the “Days to Confluency” value (Table 2, Exp. Series I, strain 15) was 5 days. For the same molecule, the “Days to Confluency” value (Table 2, Exp. Series I, strain 16) was 5 days, the “Days to Confluency” value (Table 2, Exp. Series II, strain 1) was 7 days and the “Days to Confluency” value (Table 2, Exp. Series II, strain 2) was 7 days. The “Days to Confluency” value (Table 2, Exp. Series II, strain 3) was 9 days, the “Days to Confluency” value (Table 2, Exp. Series II, strain 4) was 5 days and the “Days to Confluency” value (Table 2, Exp. Series II, strain 5) was 5 days. For the same molecule, the “Days to Confluency” value (Table 2, Exp. Series II, strain 6) was 5 days, the “Days to Confluency” value (Table 2, Exp. Series II, strain 7) was 5 days and the “Days to Confluency” value (Table 2, Exp. Series II, strain 8) was 7 days. The “Days to Confluency” value (Table 2, Exp. Series II, strain 9) was 6 days, the “Days to Confluency” value (Table 2, Exp. Series II, strain 10) was 6 days and the “Days to Confluency” value (Table 2, Exp. Series II, strain 11) was 6 days. The “Days to Confluency” value (Table 2, Exp. Series II, strain 12) was 6 days, the “Days to Confluency” value (Table 2, Exp. Series II, strain 13) was 6 days and the “Days to Confluency” value (Table 2, Exp. Series II, strain 14) was 6 days. The “Days to Confluency” value (Table 2, Exp. Series II, strain 15) was 6 days, the “Days to Confluency” value (Table 2, Exp. Series II, strain 16) was 6 days and the “Days to Confluency” value (Table 2, Exp. Series III, strain 1) was 5 days. The “Days to Confluency” value (Table 2, Exp. Series III, strain 2) was 5 days, the “Days to Confluency” value (Table 2, Exp. Series III, strain 3) was 12 days and the “Days to Confluency” value (Table 2, Exp. Series III, strain 4) was 6 days. For the same molecule, the “Days to Confluency” value (Table 2, Exp. Series III, strain 5) was 5 days, the “Days to Confluency” value (Table 2, Exp. Series III, strain 6) was 5 days and the “Days to Confluency” value (Table 2, Exp. Series III, strain 7) was 5 days. For the same molecule, the “Days to Confluency” value (Table 2, Exp. Series III, strain 8) was 5 days, the “Days to Confluency” value (Table 2, Exp. Series III, strain 9) was 7 days and the “Days to Confluency” value (Table 2, Exp. Series III, strain 10) was 5 days. For the same molecule, the “Days to Confluency” value (Table 2, Exp. Series III, strain 11) was 5 days, the “Days to Confluency” value (Table 2, Exp. Series III, strain 12) was 5 days and the “Days to Confluency” value (Table 2, Exp. Series III, strain 13) was 6 days. For the same molecule, the “Days to Confluency” value (Table 2, Exp. Series III, strain 14) was 5 days, the “Days to Confluency” value (Table 2, Exp. Series III, strain 15) was 5 days and the “Days to Confluency” value (Table 2, Exp. Series III, strain 16) was 5 days.
